Experimental data reported in US7981903B2, “2-[2-{phenylamino}-1H-pyrrolo[2,3-D]pyrimidin-4-yl)amino] benzamide derivatives as IGF-1R inhibitors for the treatment of cancer” (GlaxoSmithKline LLC, priority 2007, dated 2011).

Key:
[1] = target: ALK (Homo sapiens, UniProt Q9UM73); experiment: ALK enzyme assay (HTRF); assay type: biochemical; details: 0.25 nM ALK, 15.0 μM ATP, values given as pIC50 category
How it was run: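 Final compound range 0.00017 to 10 μM (twelve 1:3 dilutions). Kinase reaction with ATP and biotinylated synthetic peptide runs 120 min at 20° C, stopped with EDTA; phosphotyrosine detected by HTRF after 60 min. Inhibition referenced to DMSO (1%) and EDTA (0.1 M) controls, curve-fitted.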

[2] = system: Colo205; experiment: Inhibition of cell proliferation (CellTiter-Glo or InCell analyzer), Colo205; assay type: cell-based; details: Homo sapiens, COLO 205, 72 h / 3 days, values given as IC50 category
How it was run: In one

[3] = target: T1, NIH-3T3 cells overexpressing human IR (Homo sapiens, UniProt P06213); experiment: IR cellular autophosphorylation (DELFIA); assay type: cell-based; details: 2 h compound, insulin 3 ug/ml for 15 minutes, IC50 category
T1 construct: expressed in transfected cells; host or cells: NIH-3T3 (mouse fibroblasts)
T1 sequence (P06213 28-1382): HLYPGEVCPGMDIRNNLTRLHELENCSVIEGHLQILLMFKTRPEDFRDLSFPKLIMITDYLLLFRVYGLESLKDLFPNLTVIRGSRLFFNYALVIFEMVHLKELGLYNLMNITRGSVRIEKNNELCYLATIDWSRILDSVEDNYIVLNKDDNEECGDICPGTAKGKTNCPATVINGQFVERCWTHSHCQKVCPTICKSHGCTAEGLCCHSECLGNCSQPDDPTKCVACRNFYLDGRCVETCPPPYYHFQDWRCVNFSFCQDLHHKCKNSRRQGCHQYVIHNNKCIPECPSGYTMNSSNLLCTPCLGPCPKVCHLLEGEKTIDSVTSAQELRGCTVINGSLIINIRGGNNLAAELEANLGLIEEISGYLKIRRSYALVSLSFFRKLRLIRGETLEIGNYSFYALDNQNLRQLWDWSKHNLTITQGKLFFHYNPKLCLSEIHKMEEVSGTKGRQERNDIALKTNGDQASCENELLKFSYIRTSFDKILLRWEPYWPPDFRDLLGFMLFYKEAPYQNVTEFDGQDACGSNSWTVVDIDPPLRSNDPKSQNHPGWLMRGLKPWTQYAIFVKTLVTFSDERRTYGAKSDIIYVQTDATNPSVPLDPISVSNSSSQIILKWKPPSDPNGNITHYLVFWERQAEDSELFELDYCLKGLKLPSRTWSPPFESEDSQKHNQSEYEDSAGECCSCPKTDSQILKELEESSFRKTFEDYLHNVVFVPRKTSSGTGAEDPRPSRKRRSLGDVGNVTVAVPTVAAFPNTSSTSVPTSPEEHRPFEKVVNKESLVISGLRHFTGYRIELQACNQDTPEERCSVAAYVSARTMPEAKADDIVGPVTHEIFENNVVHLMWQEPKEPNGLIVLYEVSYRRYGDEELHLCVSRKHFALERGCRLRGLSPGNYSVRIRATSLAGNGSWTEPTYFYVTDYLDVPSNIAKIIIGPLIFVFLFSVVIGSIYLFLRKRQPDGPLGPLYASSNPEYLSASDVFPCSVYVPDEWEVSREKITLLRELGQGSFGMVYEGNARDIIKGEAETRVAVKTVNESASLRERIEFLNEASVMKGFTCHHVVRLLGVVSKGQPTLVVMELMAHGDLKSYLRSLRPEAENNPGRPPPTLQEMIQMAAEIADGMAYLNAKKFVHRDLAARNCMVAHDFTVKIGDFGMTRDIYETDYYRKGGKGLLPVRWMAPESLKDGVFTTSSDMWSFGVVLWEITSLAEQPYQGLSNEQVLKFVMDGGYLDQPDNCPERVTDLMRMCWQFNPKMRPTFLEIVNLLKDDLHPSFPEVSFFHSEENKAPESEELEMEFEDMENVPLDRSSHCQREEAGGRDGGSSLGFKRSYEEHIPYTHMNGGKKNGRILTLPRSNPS
How it was run: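 Receptor autophosphorylation measured by DELFIA, capturing IGF-1R or IRβ and detecting with europium anti-pTyr, reported as percent of IGF-1- or insulin-stimulated signal. Compounds (30 uM to 1.5 nM) added 2 h before ligand, then 15 min stimulation (IGF-1 30 ng/ml or insulin 3 ug/ml).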

[4] = system: NCI-H929; experiment: Inhibition of cell proliferation (CellTiter-Glo or InCell analyzer), NCI-H929; assay type: cell-based; details: Homo sapiens, 72 h / 3 days, values given as IC50 category
How it was run: In one

Sequence of ALK (Q9UM73 19-1620): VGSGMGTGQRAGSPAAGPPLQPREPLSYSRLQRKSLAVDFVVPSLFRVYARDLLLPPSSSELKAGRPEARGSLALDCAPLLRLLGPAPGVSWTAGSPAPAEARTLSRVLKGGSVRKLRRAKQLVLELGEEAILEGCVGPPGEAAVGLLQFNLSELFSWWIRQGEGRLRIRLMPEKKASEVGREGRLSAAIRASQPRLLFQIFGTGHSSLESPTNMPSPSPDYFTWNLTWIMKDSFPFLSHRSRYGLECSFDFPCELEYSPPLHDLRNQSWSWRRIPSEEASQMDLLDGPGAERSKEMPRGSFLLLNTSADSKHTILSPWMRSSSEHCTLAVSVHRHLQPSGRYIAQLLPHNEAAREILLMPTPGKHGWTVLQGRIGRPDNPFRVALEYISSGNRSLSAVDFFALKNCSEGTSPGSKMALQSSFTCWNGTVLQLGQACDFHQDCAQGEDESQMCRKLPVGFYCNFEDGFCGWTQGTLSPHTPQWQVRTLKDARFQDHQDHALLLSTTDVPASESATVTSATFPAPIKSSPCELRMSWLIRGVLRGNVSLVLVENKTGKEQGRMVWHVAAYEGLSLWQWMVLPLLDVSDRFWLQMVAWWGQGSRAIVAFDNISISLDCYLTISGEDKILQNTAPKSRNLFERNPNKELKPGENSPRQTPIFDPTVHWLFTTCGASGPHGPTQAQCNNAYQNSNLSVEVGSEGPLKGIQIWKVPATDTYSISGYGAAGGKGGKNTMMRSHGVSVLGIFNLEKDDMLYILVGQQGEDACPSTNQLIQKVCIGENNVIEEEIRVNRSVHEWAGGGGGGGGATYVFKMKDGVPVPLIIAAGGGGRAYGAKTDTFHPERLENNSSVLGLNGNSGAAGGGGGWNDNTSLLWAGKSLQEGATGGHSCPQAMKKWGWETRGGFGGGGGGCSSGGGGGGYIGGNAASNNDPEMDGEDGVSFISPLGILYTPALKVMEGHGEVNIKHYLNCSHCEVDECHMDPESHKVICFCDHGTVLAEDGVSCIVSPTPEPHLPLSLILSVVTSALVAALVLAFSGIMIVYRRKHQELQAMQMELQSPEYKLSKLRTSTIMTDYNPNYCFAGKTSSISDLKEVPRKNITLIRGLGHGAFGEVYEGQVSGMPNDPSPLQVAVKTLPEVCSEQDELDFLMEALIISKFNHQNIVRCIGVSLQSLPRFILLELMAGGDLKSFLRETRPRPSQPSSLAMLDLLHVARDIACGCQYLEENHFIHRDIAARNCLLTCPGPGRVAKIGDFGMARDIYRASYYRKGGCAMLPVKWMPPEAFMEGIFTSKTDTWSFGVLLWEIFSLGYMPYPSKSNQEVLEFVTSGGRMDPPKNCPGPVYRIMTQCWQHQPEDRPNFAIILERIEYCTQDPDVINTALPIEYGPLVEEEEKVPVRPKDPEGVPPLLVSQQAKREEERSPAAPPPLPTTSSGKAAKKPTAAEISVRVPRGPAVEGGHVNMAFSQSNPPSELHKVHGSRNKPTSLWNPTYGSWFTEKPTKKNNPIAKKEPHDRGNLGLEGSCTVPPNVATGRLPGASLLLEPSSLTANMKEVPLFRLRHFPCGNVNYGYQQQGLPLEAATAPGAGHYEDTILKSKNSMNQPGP

Structure (SMILES) | IC50 [1] [nM] | IC50 [2] [nM] | IC50 [3] [nM] | IC50 [4] [nM]
COc1cc(N2CCN(CCS(C)(=O)=O)CC2)c(C)cc1Nc1nc(Nc2cccc(F)c2C(N)=O)c2cc[nH]c2n1 [Example 52, 2-fluoro-6-({2-[(5-methyl-2-(methyloxy)-4-{4-[2-(methylsulfonyl)ethyl]-1-piperazinyl}phenyl)amino]-1H-pyrrolo[2,3-d]pyrimidin-4-yl}amino)benzamide] | 1.26 to 3.98 | > 1000 | > 500 | 250 to 1000
COc1cc(N2CCC[C@H](O)C2)ccc1Nc1nc(Nc2cc(F)ccc2C(N)=O)c2cc[nH]c2n1 [Example 74, 4-fluoro-2-[(2-{[4-[(3S)-3-hydroxy-1-piperidinyl]-2-(methyloxy)phenyl]amino}-1H-pyrrolo[2,3-d]pyrimidin-4-yl)amino]benzamide] | 1.26 to 3.98 | < 250 | 100 to 500 | 
COc1cc(N2CCC(N3CC[C@H](F)C3)CC2)ccc1Nc1nc(Nc2cc(F)ccc2C(N)=O)c2cc[nH]c2n1 [Example 75, 4-fluoro-2-[(2-{[4-{4-[(3S)-3-fluoro-1-pyrrolidinyl]-1-piperidinyl}-2-(methyloxy)phenyl]amino}-1H-pyrrolo[2,3-d]pyrimidin-4-yl)amino]benzamide] | 1.26 to 3.98 | < 250 | < 100 | 
COc1cc(N2CCC(N3CC[C@@H](F)C3)CC2)ccc1Nc1nc(Nc2cc(F)ccc2C(N)=O)c2cc[nH]c2n1 [Example 76, 4-fluoro-2-[(2-{[4-{4-[(3R)-3-fluoro-1-pyrrolidinyl]-1-piperidinyl}-2-(methyloxy)phenyl]amino}-1H-pyrrolo[2,3-d]pyrimidin-4-yl)amino]benzamide] | 1.26 to 3.98 | 250 to 1000 | 100 to 500 | 
COc1cc(N2CCC(N3CCCC(F)(F)C3)CC2)ccc1Nc1nc(Nc2cc(F)ccc2C(N)=O)c2cc[nH]c2n1 [Example 77, 2-[(2-{[4-(3,3-difluoro-1,4′-bipiperidin-1′-yl)-2-(methyloxy)phenyl]amino}-1H-pyrrolo[2,3-d]pyrimidin-4-yl)amino]-4-fluorobenzamide] | 1.26 to 3.98 | 250 to 1000 | < 100 | 
COc1cc(N2CCN(C(C)C)CC2)c(OC)cc1Nc1nc(Nc2cc(F)ccc2C(N)=O)c2cc[nH]c2n1 [Example 82, 4-fluoro-2-[(2-{[4-[4-(1-methylethyl)-1-piperazinyl]-2,5-bis(methyloxy)phenyl]amino}-1H-pyrrolo[2,3-d]pyrimidin-4-yl)amino]benzamide] | 1.26 to 3.98 | < 250 | 100 to 500 | 
COc1cc(N2CCN(C(C)C)CC2)ccc1Nc1nc(Nc2cc(F)cc(OC)c2C(N)=O)c2cc[nH]c2n1 [Example 88] | 1.26 to 3.98 | 250 to 1000 | > 500 | 
COc1cc(N2CCN(C(C)=O)CC2)ccc1Nc1nc(Nc2cc(F)c(F)cc2C(N)=O)c2cc[nH]c2n1 [Example 103, 2-[(2-{[4-(4-acetyl-1-piperazinyl)-2-(methyloxy)phenyl]amino}-1H-pyrrolo[2,3-d]pyrimidin-4-yl)amino]-4,5-difluorobenzamide] | 1.26 to 3.98 | < 250 | 100 to 500 | 
COc1cc(N2CCOC[C@@H]2C)ccc1Nc1nc(Nc2cc(F)c(F)cc2C(N)=O)c2cc[nH]c2n1 [Example 105, 4,5-difluoro-2-[(2-{[4-[(3S)-3-methyl-4-morpholinyl]-2-(methyloxy)phenyl]amino}-1H-pyrrolo[2,3-d]pyrimidin-4-yl)amino]benzamide] | 1.26 to 3.98 | < 250 | < 100 | 

Second part, the compound after the results:

IC50 [1] [nM] | IC50 [2] [nM] | IC50 [3] [nM] | IC50 [4] [nM] | Structure (SMILES)
1.26 to 3.98 | 250 to 1000 | > 500 | < 250 | COc1cc(N2CCC(N3CC[C@@H](F)C3)CC2)ccc1Nc1nc(Nc2cccc(F)c2C(N)=O)c2cc[nH]c2n1 [Example 44, 2-fluoro-6-[(2-{[4-{4-[(3R)-3-fluoro-1-pyrrolidinyl]-1-piperidinyl}-2-(methyloxy)phenyl]amino}-1H-pyrrolo[2,3-d]pyrimidin-4-yl)amino]benzamide]
0.251 to 1 | < 250 | 100 to 500 | < 250 | COc1cc(N2CCN(C(C)C)CC2)ccc1Nc1nc(Nc2cccc(F)c2C(N)=O)c2cc[nH]c2n1 [Example 46, 2-fluoro-6-[(2-{[4-[4-(1-methylethyl)-1-piperazinyl]-2-(methyloxy)phenyl]amino}-1H-pyrrolo[2,3-d]pyrimidin-4-yl)amino]benzamide]
0.251 to 1 | 250 to 1000 | < 100 | < 250 | COc1cc(N2CCN(C(C)C)CC2)c(F)cc1Nc1nc(Nc2cccc(F)c2C(N)=O)c2cc[nH]c2n1 [Example 48, 2-fluoro-6-[(2-{[5-fluoro-4-[4-(1-methylethyl)-1-piperazinyl]-2-(methyloxy)phenyl]amino}-1H-pyrrolo[2,3-d]pyrimidin-4-yl)amino]benzamide]
1.26 to 3.98 | 250 to 1000 | > 500 | 250 to 1000 | COc1c(Nc2nc(Nc3cccc(F)c3C(N)=O)c3cc[nH]c3n2)ccc(N2CCN(C(C)C)CC2)c1F [Example 51, 2-fluoro-6-[(2-{[3-fluoro-4-[4-(1-methylethyl)-1-piperazinyl]-2-(methyloxy)phenyl]amino}-1H-pyrrolo[2,3-d]pyrimidin-4-yl)amino]benzamide]
0.251 to 1 | < 250 | < 100 | < 250 | CCCN1CCC=C(c2ccc(Nc3nc(Nc4cc(F)ccc4C(N)=O)c4cc[nH]c4n3)c(OC)c2)C1 [Example 70, 4-fluoro-2-[(2-{[2-(methyloxy)-4-(1-propyl-1,2,5,6-tetrahydro-3-pyridinyl)phenyl]amino}-1H-pyrrolo[2,3-d]pyrimidin-4-yl)amino]benzamide]
0.251 to 1 | 250 to 1000 | 100 to 500 |  | COc1cc(C2=CCN(C(C)C)CC2)ccc1Nc1nc(Nc2cc(F)ccc2C(N)=O)c2cc[nH]c2n1 [Example 72, 4-fluoro-2-[(2-{[4-[1-(1-methylethyl)-1,2,3,6-tetrahydro-4-pyridinyl]-2-(methyloxy)phenyl]amino}-1H-pyrrolo[2,3-d]pyrimidin-4-yl)amino]benzamide]
0.251 to 1 | 250 to 1000 | > 500 |  | CCCN1CCC=C(c2ccc(Nc3nc(Nc4cc(F)ccc4C(=O)N[C@@H](C)CC)c4cc[nH]c4n3)c(OC)c2)C1 [Example 87, 4-fluoro-2-[(2-{[2-(methyloxy)-4-(1-propyl-1,2,5,6-tetrahydro-3-pyridinyl)phenyl]amino}-1H-pyrrolo[2,3-d]pyrimidin-4-yl)amino]-N-[(1S)-1-methylpropyl]benzamide]
0.251 to 1 | 250 to 1000 | > 500 |  | COc1cc(N2CCC(N3CCOCC3)CC2)ccc1Nc1nc(Nc2cc(F)c(F)cc2C(N)=O)c2cc[nH]c2n1 [Example 101, 4,5-difluoro-2-{[2-({2-(methyloxy)-4-[4-(4-morpholinyl)-1-piperidinyl]phenyl}amino)-1H-pyrrolo[2,3-d]pyrimidin-4-yl]amino}benzamide]
0.251 to 1 | < 250 |  | < 250 | COc1cc(N2CCC(C3CCN(CCS(C)(=O)=O)CC3)CC2)ccc1Nc1nc(Nc2cccc(F)c2C(N)=O)c2cc[nH]c2n1 [Example 112, 2-fluoro-6-({2-[(2-(methyloxy)-4-{1′-[2-(methylsulfonyl)ethyl]-4,4′-bipiperidin-1-yl}phenyl)amino]-1H-pyrrolo[2,3-d]pyrimidin-4-yl}amino)benzamide]
